Entries after “also recorded” stand apart in the source; their conditions may differ.
Tests used:
[1] = system: wild-type, APOE knockout and APOE4 mice; test: Systemic toxicity (tremor, seizures, survival) after a single i.p. dose of TMT
[2] = system: hippocampal dentate granule cells; test: Hematoxylin and eosin staining of hippocampus 24 h after TMT; assay type: in vivo, mice
Procedure: (§1) Food and water were available ad libitum.
(§2) Based upon previous studies with TMT exposure (Bruccoleri et al., 1998, 1999), a minimum of six mice per group were examined for morphological changes in the hippocampus 24 h following injection. Animals were lightly anesthetized with CO2 and decapitated and brains were removed from the cranium, bisected in the midsagittal plane, and immersion-fixed in 4% paragormaldehyde/0.1 M phosphate-buffered saline (PBS; pH 7.2) overnight at room temperature. Eight-micron paraffin-embedded sections were stained by routine hematoxylin and eosin (H&E) to visualize tissue cellularity. Astrocytes were identified by immunohistochemistry using polyclonal glial fibrillary acidic protein (GFAP) antibodies (Dako Corp., Carpinteria, Calif.). Briefly, rehydrated sections were treated with 3% H2O2, subjected to heat-induced epitope retrieval (HIER) using a decloaking chamber (Biocare Medical, Walnut Creek, Calif.), and incubated with nonimmune goat serum (1.5:100 dilution in 1% BSA/PBS) prior to incubation with rabbit anti-rat GFAP (1:2000 in 1:1 solution of 1% BSA and 1% powered milk in PBS). Sections were incubated with a secondary IgG antibody followed by ABC (avidin-biotin complex) reagent (Vectastain Elite, Vector Laboratories, Burlingame, Calif.) and detected by 3,3′-diaminobenzidine tetrahydrochloride (DAB) substrate (Sigma-Aldrich Research, St. Louis, Mo.). Microglia cells were identified by lectin binding (Bandeiraea Simplicifolia BS-4, 1:10; Sigma Chemical Co.; St. Louis, Mo.) by the method of Streit and Kreutzberg (1987) using HIER. Sites containing microglia bound peroxidase-lectin conjugates were visualized by DAB-H2O2 substrate containing CO2 ions.

[3] = system: TNFβ, TNFα, IL-1α, MIP-1α and TGF-β1 mRNA; test: RNase protection assay, cytokine probe set, cortex; assay type: in vivo, mice; settings: 24 h
Procedure: as §1
(§3) Based upon earlier studies with TMT exposure (Bruccoleri et al., 1998, 1999), Rnase protection assays were conducted at 24-h post-TMT. Multiprobe sets were used for simultaneous detection of mRNAs as previously described (Hobbs, 1993; Bruccoleri et al., 1999). The first set, provided by Dr. Iain Campbell (Scripps Research Institute, San Diego, Calif.), contained probes for intercellular adhesion molecule-1 (ICAM-1), inducible nitric oxide synthase (iNOS), an anti-apoptotic TNFα-inducible early response gene (A20), macrophase-1 antigen (Mac-1), a murine acute-phase response gene homologous to the α-1-antichymotrypsin gene (EB22/5), and GFAP as previously described (Campbell et al., 1994). The second set was purchased from Pharmingen (San Diego, Calif.) and contained probes for tumor necrosis factor-β (TNFβ) and -α (TNFα), interleukin-1α (IL-1α), macrophage inflammatory protein-1α (MIP-1α), and transforming growth factor-β1 (TGF-β1). Each probe set contained probes for L32 and GAPDH. A minimum of 4 animals per group was used in each experiment. Individual fragments were separated by 5% acrylamide/8 M urea sequencing gel electrophoresis and visualized by autoradiography (Hyperfilm-MP film; Amersham, Buckinghamshire, U.K.). Radioactivity in each fragment was visualized by phosphorimager (Molecular Dynamics, Sunnyvale, Calif.) and relative volume determined using Imagequant (Molecular Dynamics) and normalized relative to the corresponding L32 volume.
(§4) Subsequent independent group mean comparisons between each saline-injected genotype or between TMT and saline-injected mice, within each genotype, were conducted using individual one-way ANOVAs for each gene transcript. A statistical significance level was set at p<0.05.
Given the genotype-specific effects in the hippocampus of 8-month-old mice following TMT, additional brain regions were examined. In the cortex, TMT exposure elevated mRNA levels for TNFα and TGF-β1 in the wild-type mice with no elevation seen in the APOE knockout or APOE4 mice (FIG. 7). MIP-1α mRNA levels in both wild-type and APOE4 mice were elevated by TMT with no elevation in APOE knockout mice (FIG. 7).

[4] = system: TNFβ, TNFα, IL-1α, MIP-1α and TGF-β1 mRNA; test: RNase protection assay, cytokine probe set, hippocampus; assay type: in vivo, mice; settings: for increase of MEP-1α mRNA levels: vs saline
Procedure: as §1, §3, §4

[5] = system: microglia; test: Lectin histochemistry for microglia in hippocampus 24 h after TMT; assay type: in vivo; settings: 24 h post-TMT, wild-type, APOE knockout and APOE4 mice
Procedure: as §1
as §2, with “Microglia cells were identified by lectin binding (Bandeiraea Simplicifolia BS-4, 1:10; Sigma Chemical Co.; St. Louis, Mo.) by the method of Streit and Kreutzberg (1987) using HIER. Sites containing microglia bound peroxidase-lectin conjugates were visualized by DAB-H2O2 substrate containing CO2 ions.” left out

[6] = system: astrocytes (GFAP immunoreactivity); test: GFAP immunohistochemistry of astrocytes in hippocampus 24 h after TMT; assay type: in vivo, mice
Procedure: as §1, §2

[7] = system: TNFβ, TNFα, IL-1α, MIP-1α and TGF-β1 mRNA; test: RNase protection assay, cytokine probe set, cerebellum; assay type: in vivo; settings: 8-month-old mice, 24 h
Procedure: as §1
as §3, with “Individual fragments were separated by 5% acrylamide/8 M urea sequencing gel electrophoresis and visualized by autoradiography (Hyperfilm-MP film; Amersham, Buckinghamshire, U.K.).” left out, “volume. […]” for “volume.”

[8] = system: ICAM-1, iNOS, A20, Mac-1, EB22/5 and GFAP mRNA; test: RNase protection assay, host-response gene probe set, hippocampus; assay type: in vivo, mice; settings: 24 h; for mRNA levels for Mac-1, A20, and iNOS: any group of mice
Procedure: as §1, §3, §4

[9] = 8-month-old APOE knockout mice, hippocampus, 24 h
[10] = 8-month-old, all animals, hippocampus, 24 h
[11] = 21-day-old wild-type and APOE knockout mice

[CH3][Sn]([CH3])([CH3])[OH] [TMT, trimethyltin hydroxide]
decrease in survival rate ([1]; APOE4 mice, 8 months of age, compared to APOE knockout and wild-type): ~40%
decrease in survival rate ([1]; APOE4 mice, 21 days of age, 2.0 mg/kg i.p.): 20%
decrease in survival rate ([1]; APOE knockout mice, 21 days of age, 2.0 mg/kg i.p.): 10%
aggressiveness or seizures ([1]; any of the mice exposed to TMT): No signs of aggressiveness or seizures
neuronal necrosis in dentate granule cells (FIG. 1) ([2]; TMT-exposed wild-type, APOE knockout and APOE4 mice, 2 mg/kg ip, 24 h): Severe neuronal necrosis
neuronal cell death in the hippocampus (dentate granule cells) ([2]; wild-type mice, 24 h after TMT): neuronal cell death was evident
neurons of the pyramidal cell layer ([2]; wild-type mice, 24 h after TMT): no indication of neuronal cell death
MIP-1α mRNA levels ([3]; 8-month-old APOE knockout mice): no elevation
mRNA levels for TNFα and TGF-β1 ([3]; 8-month-old APOE knockout or APOE4 mice): no elevation
MIP-1α mRNA levels ([3]; 8-month-old wild-type and APOE4 mice): elevated
mRNA levels for TNFα and TGF-β1 ([3]; 8-month-old wild-type mice): elevated
increase of MEP-1α mRNA levels ([4]; 8-month-old APOE4 mice, hippocampus, 24 h): 3 fold
elevation in MIP-1α mRNA compared to the response in wild-type mice ([4]; 8-month-old APOE knockout mice): less elevation
TNFα mRNA level [4, 9]: distinct lack of elevation; also recorded: No elevation
increase of MEP-1α mRNA levels [4, 9]: 1.3 fold
TNFα mRNA levels ([4]; 8-month-old wild-type and APOE4 mice, hippocampus, 24 h): elevated
increase of MEP-1α mRNA levels ([4]; 8-month-old wild-type mice, hippocampus, 24 h): 3.5 fold
MIP-1α mRNA levels relative to saline-injected mice [4, 10]: significant (p<0.05) elevations
mRNA levels for TNFβ, IL-1α, or TGF-β1 [4, 10]: No significant elevations
IL-1α mRNA levels ([4]; 21-day-old APOE knockout and APOE4 mice, hippocampus, 24 h): elevated
TNFα and TGF-β1 mRNA levels ([4]; 21-day-old wild-type and APOE knockout mice, hippocampus, 24 h): significantly elevated
MIP-1α mRNA levels ([4]; 21-day-old, all mice, hippocampus, 24 h): elevations
induction of TNFα, IL-1α, and MIP-1α by TMT ([4]; APOE knockout mice (discussion)): lack of an induction
induction of TGF-β1 ([4]; APOE knockout mice or those containing the E4 allele, following TMT (discussion)): lack of an induction
reactive/activated microglia by lectin histochemistry [5]: did not detect reactive/activated microglia
astrocyte morphology (FIG. 2) ([6]; 24 h after TMT 2.0 mg/kg ip, compared with saline): thick cell bodies and processes characteristic of astrocyte reactivity
GFAP immunoreactivity in astrocytes ([6]; APOE knockout and APOE4 mice, 24 h after TMT): slight increase in GFAP immunoreactivity
GFAP immunostaining ([6]; wild-type mice, 24 h after TMT): little change
mRNA levels for TNFβ, TNFα, IL-1α, MIP-1α, and TGF-β1 [7]: no effect
EB22 mRNA levels ([8]; 8-month-old APOE knockout and APOE4 mice): elevation
EB22 mRNA levels ([8]; 8-month-old wild-type mice): No elevation
GFAP mRNA levels ([8]; 8-month-old, all groups of mice): elevation
mRNA levels for Mac-1, A20, and iNOS ([8]; 8-month-old): not altered
EB22 mRNA levels ([8]; 21-day-old APOE4 mice): no elevation
EB22 mRNA levels [8, 11]: significant (p<0.05) elevation
GFAP mRNA levels [8, 11]: significantly elevated
ICAM-1 mRNA levels ([8]; 21-day-old, all mice, vs saline): slight but significant elevation
mRNA levels for Mac-1, A20, and iNOS ([8]; 21-day-old): not altered

— patent US20030224446A1, “Method of predicting cytokine response to tissue injury” (priority 2001, published 2003)
